Patent US20140045856A1, “4-Methyl-2,3,5,9,9b-pentaaza-cyclopenta[a]naphthalenes” (BOEHRINGER INGELHEIM INTERNATIONAL GMBH, priority 2012, published 2014)
Read-outs that look alike come from different tables or passages of the source.

How the values were obtained:
hERG channel = hERG channel (Homo sapiens, UniProt Q12809); test: hERG channel assay (whole-cell patch clamp, HEK293 cells transfected with hERG cDNA); type: cell-based; details: 35° C.
From the text: hERG (Human Ether-à-Go-Go-Related Gene)-Channel Assay
hERG channel inhibition of compounds of the present invention has been investigated as follows:
HEK (human embryonic kidney) 293 cells were stably transfected with hERG cDNA. Cells were superfused with a bath solution containing (mM): NaCl (137), KCl (4.0), MgCl2 (1.0), CaCl2 (1.8), Glucose (10), HEPES (10), pH 7.4 with NaOH. Patch pipettes were made from borosilicate glass tubing using a horizontal puller and filled with pipette solution containing (mM): K-aspartate (130), MgCl2 (5.0), EGTA (5.0), K2ATP (4.0), HEPES (10.0), pH 7.2 with KOH. Resistance of the microelectrodes was in the range between 2 and 5 MΩ.
Stimulation and Recording:
Membrane currents were recorded using an EPC-10 patch clamp amplifier and PatchMaster software. hERG-mediated membrane currents were recorded at 35° C., using the whole-cell configuration of the patch-clamp technique. Transfected HEK293 cells were clamped at a holding potential of −60 mV and hERG-mediated inactivating tail currents were elicited using a pulse pattern with fixed amplitudes (activation/inactivation: 40 mV for 2000 ms; recovery: […]; ramp to 40 mV in 2 ms; inactivating tail current: 40 mV for 50 ms) repeated at 15 s intervals. During each inter-pulse interval 4 pulses scaled down by a factor of 0.2 were recorded for a P/n leak subtraction procedure. […] compensation was employed up to a level that safely allowed recording devoid of ringing.
Compound Preparation and Application:
The different concentrations of the test compound were applied sequentially on each of the different cells investigated. A steady state level of baseline current was measured for at least 6 sweeps prior to the application of the first test compound concentration.
The test compound was dissolved in DMSO to yield a master stock solution which was diluted further in DMSO to stock solutions needed for the lower concentrations. Final dilutions in extracellular buffer were prepared freshly from these stocks by a 1:1000 dilution step each before starting the experiments.
Data analysis and IC50 determination:
Peak current amplitudes were measured 3 ms after the ramp to +40 mV. For baseline and each concentration the peak currents of the three last sweeps before application of the next concentration were averaged. Residual currents ( 1/10) were calculated for each cell as the fraction of actual average peak current and average baseline peak current.
The logistic concentration-response curve of the following form was fitted to the residual current data using a genetic algorithm:
C: actual concentration of compound (in μM) IC50: half-inhibitory concentration (in μM) p: Hill slope

[1] = Metabolic stability in pooled liver microsomes; type: in vitro ADME; details: human liver microsomes, 37° C., 1 mg/mL microsomal protein, test compound 1 μM, NADPH; for half-life at 1 μM: pooled liver microsomes, pH 7.6, read-out: Half-life - t½
Experimental: The metabolic stability of the compounds according to the invention has been investigated as follows:
The metabolic degradation of the test compound was assayed at 37° C. with pooled liver microsomes from various species. The final incubation volume of 100 μl per time point contains TRIS buffer pH 7.6 at room temperature (0.1 M), magnesium chloride (5 mM), microsomal protein (1 mg/mL for human and dog, 0.5 mg/mL for other species) and the test compound at a final concentration of 1 μM. Following a short preincubation period at 37° C., the reactions were initiated by addition of betanicotinamide adenine dinucleotide phosphate, reduced form (NADPH, 1 mM), and terminated by transferring an aliquot into solvent after different time points. […] The half-life was determined by the slope of the semi-logarithmic plot of the concentration-time profile.

PDE2A = PDE2A (Homo sapiens, UniProt O00408); test: PDE 2A assay with fluorescent substrate (IMAP, fluorescence polarization); type: biochemical; details: read-out: PDE2 IC50
From the text: (§1) c) Phosphodiesterase (PDE) 2A and 10 Assay with Fluorescent Substrate
(§2) The PDE reaction cleaves cAMP to AMP. The IMAP system (Molecular Device) using fluorescence polarization (FP) as detection principle was used to measure enzyme activity. A fluorescent labeled cAMP was used as substrate for the reaction, generating a labeled AMP. The fluorescent AMP binds specifically to the large M(III)-based nano-particles which reduces the rotational speed of the substrate and thus increases its polarization.
(§3) The inhibition of PDE 2A or 10 enzyme activity was assessed using IMAP-Phosphodiesterase-cAMP fluorescence labeled substrate (Molecular Devices, Order No. R7506), IMAP TR-FRET screening express (Molecular Devices, Order No. R8160, the TR-FRET component will not be used) and PDE 2A or PDE10 protein expressed upon baculovirus infection in SF9 cells. The cells were incubated after infection for ˜3 days and protein production was confirmed by Western Blot. The cells were collected by centrifugation and the pellet frozen in liquid nitrogen before it was resuspended in PBS containing 1% Triton X-100 and protease inhibitors.
(§4) All reactions were performed in 384 well plates, Perkin Elmer black optiplates and IMAP reaction buffer with 0.1% Tween20 (kit component)
(§5) Compounds were serial diluted in DMSO. With an intermediate dilution step with reaction buffer DMSO concentration was reduced to achieve 1% DMSO in the assay reaction. Setup of the assay started with 10 μl enzyme (˜10 ng/well, depending on prep. batch), 5 μl compound, reaction was started by addition of 5 μl labeled cAMP (30 nM, final concentration), immediately mixed for 15 seconds on a Eppendorf mixmate (2000 rpm) followed by an incubation at room temperature for 90 minutes in the dark. Reaction is stopped by adding of 60 μl binding buffer for FP/cAMP (kit component).
(§6) Each assay plate contained wells with vehicle controls (1% DMSO) for the measurement of non-inhibited reaction (=100% control) and wells without enzyme as 0% controls.

PDE10 = PDE10 (Homo sapiens, UniProt Q9Y233); test: PDE10 assay with fluorescent substrate (IMAP, fluorescence polarization); type: biochemical
From the text: as §1, §2, §3, §4, §5, §6

[2] = Animal experiments and sample analysis: plasma, brain and CSF concentration; type: in vivo; details: rat; for concentration at 0.5 h / Kp at 0.5 h: 0.5 h between administration and CSF sampling; for concentration at 0.5 h / concentration at 2 h: doses of 10.0 or 5 μmol/kg; for concentration at 2 h / Kp at 2 h: 2 h between administration and CSF sampling
Experimental: Test compounds were administered to animals (rat) different routes at doses of 10.0 or 5 μmol/kg, (both oral and intravenous). After compound administration, the animals were sacrificed in a CO2 chamber and CSF samples were carefully collected by puncture of the cisterna magna. Immediately after CSF sampling, blood was taken by heart puncture and brains were dissected out. Blood was collected in EDTA-coated microvettes and plasma was prepared by centrifugation. Concentration of the test compounds in plasma, CSF or brain homogenate was determined using HPLC-MS-MS.

[3] = brain, read-out: c(brain)/c(plasma)

PDE2A, sequence (O00408 whole entry, species assumed): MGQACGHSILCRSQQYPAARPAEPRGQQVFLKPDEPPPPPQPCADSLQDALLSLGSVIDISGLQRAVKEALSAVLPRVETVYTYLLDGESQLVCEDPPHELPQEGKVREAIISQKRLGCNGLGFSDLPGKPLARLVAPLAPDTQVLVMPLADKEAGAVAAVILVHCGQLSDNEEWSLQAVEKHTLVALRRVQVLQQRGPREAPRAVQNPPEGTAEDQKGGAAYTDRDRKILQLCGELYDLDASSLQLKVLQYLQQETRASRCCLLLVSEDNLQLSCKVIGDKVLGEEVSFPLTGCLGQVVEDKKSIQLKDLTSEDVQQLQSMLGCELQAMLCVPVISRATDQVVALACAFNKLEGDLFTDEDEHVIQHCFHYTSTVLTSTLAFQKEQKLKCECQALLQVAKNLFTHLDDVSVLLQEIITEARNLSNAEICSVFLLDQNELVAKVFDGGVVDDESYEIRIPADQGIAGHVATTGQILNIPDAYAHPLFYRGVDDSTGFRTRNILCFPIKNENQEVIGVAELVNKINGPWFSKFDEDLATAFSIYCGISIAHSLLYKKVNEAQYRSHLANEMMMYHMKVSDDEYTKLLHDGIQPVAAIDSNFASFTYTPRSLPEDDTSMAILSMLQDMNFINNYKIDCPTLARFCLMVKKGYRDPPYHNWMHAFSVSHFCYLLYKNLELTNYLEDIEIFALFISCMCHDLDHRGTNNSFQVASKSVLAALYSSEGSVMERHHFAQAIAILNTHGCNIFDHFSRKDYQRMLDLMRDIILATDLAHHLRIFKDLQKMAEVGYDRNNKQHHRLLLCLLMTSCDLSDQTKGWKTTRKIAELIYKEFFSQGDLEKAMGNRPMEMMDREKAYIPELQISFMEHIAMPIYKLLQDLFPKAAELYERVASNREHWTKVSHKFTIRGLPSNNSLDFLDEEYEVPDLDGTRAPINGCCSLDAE
hERG channel, sequence (Q12809 whole entry): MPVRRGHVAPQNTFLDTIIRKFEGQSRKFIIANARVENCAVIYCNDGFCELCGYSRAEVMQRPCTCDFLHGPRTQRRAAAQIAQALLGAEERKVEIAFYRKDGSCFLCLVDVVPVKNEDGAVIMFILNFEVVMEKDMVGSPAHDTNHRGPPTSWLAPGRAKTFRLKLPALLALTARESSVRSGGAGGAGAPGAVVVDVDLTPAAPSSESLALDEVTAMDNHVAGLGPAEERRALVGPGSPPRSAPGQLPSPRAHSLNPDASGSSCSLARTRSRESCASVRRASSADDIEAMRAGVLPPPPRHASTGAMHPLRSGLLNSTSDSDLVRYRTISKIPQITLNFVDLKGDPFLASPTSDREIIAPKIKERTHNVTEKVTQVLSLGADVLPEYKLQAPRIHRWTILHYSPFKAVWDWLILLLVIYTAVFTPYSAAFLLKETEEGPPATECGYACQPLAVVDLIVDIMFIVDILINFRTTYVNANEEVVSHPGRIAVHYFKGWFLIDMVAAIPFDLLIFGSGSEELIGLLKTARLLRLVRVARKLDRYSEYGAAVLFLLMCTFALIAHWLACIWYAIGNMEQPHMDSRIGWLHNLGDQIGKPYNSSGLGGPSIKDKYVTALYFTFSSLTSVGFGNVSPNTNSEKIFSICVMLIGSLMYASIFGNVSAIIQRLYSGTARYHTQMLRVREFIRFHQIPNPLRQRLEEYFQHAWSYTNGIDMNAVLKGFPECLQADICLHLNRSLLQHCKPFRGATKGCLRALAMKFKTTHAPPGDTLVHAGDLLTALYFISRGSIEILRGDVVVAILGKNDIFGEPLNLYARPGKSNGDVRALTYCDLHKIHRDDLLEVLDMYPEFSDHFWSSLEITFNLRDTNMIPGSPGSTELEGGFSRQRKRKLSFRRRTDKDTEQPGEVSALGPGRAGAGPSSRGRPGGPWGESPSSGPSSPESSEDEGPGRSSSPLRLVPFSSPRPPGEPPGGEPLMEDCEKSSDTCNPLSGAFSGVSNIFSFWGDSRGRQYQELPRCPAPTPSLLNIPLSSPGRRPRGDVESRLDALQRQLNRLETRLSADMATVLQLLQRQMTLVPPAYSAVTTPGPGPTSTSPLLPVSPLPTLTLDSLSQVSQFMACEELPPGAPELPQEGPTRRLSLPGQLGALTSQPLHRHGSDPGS
PDE10, sequence (Q9Y233 whole entry, species assumed): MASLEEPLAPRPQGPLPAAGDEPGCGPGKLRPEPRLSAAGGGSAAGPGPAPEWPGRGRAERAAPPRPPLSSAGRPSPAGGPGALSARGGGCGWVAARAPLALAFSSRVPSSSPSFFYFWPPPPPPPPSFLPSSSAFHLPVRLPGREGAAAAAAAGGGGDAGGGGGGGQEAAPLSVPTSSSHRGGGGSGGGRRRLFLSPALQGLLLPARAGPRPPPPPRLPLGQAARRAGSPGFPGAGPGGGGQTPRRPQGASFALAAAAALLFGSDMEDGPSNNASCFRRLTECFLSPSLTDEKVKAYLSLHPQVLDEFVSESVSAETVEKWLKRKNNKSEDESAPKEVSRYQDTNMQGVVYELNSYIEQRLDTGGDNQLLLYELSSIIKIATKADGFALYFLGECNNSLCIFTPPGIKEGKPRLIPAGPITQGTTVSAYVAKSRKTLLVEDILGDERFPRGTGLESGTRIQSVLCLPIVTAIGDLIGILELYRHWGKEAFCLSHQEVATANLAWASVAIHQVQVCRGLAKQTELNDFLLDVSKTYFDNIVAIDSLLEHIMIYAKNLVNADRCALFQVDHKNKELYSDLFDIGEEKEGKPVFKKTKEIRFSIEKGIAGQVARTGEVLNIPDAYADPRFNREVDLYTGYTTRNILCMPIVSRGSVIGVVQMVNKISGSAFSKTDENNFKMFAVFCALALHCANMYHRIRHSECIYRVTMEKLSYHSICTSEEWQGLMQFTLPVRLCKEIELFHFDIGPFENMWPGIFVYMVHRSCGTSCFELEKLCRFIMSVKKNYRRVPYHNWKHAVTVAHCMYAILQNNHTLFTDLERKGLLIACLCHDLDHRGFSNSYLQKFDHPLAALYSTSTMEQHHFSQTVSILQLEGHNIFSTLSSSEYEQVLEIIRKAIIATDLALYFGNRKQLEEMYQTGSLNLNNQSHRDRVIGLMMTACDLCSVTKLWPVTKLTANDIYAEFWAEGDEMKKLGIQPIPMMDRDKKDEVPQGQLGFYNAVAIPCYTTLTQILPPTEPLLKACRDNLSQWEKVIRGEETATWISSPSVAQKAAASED

## Cc1nc2cccnc2n2c(-c3cc(OC4COCC4O)ccc3Cl)nnc12 (racemic) [Example 55]
hERG channel
  IC50: > 10000 nM
[1]
  Half-life - t½: 2.17 h

## Cc1ccc(C2(O)CCOCC2O)cc1-c1nnc2c(C)nc3ccc(C4CC4)nc3n12 (racemic) [Example 104]
PDE2A
  IC50: 36 nM
PDE10
  IC50: 7720 nM
[1]
  Half-life - t½: 2.17 h

## Cc1nc2cccnc2n2c(-c3cc(OC4COCCC4O)ccc3Cl)nnc12 (single isomer, unassigned) [Example 58]
PDE2A
  IC50: 143 nM
PDE10
  IC50: 663 nM
[1]
  Half-life - t½: 2.17 h

## Cc1nc2cccnc2n2c(-c3cc(C4(O)CCOC4)ccc3Cl)nnc12 (single isomer, unassigned) [Example 99]
PDE2A
  IC50: 125 nM
PDE10
  IC50: 1510 nM
[1]
  Half-life - t½: 2.17 h

## Cc1ccc(C2(O)CCOCC2O)cc1-c1nnc2c(C)nc3ccc(C4CC4)nc3n12 (single isomer, unassigned) [Example 104a]
PDE2A
  IC50: 40 nM
PDE10
  IC50: 3230 nM
[1]
  Half-life - t½: 2.17 h

## Cc1ccc(C2(O)CCOCC2O)cc1-c1nnc2c(C)nc3ccc(C4CC4)nc3n12 (single isomer, unassigned) [Example 104b]
PDE2A
  IC50: 30 nM
PDE10
  IC50: 9760 nM
[1]
  Half-life - t½: 2.17 h

## Cc1nc2cccnc2n2c(-c3cc(OC[C@H](C)O)ccc3Cl)nnc12 [Example 18]
hERG channel
  IC50: > 10000 nM
[2]; brain, read-out: conc brain
  concentration at 0.5 h: 351 nM
[2]; plasma, read-out: conc plasma
  concentration at 0.5 h: 1220 nM
[2]; read-out: conc CSF
  concentration at 0.5 h: 163 nM
[1]
  Half-life - t½: 2.17 h

## Cc1ccc2nc(C)c3nnc(-c4cc(OCCO)ccc4Cl)n3c2n1 [Example 28]
hERG channel
  IC50: > 10000 nM

## Cc1ccc2nc(C)c3nnc(-c4cc(OC5CCOCC5)ccc4Cl)n3c2n1 [Example 32]
hERG channel
  IC50: > 10000 nM
[1]
  Half-life - t½: 2.17 h

## Cc1nc2ccc(C3CC3)nc2n2c(-c3cc(OC4CCOCC4)ccc3Cl)nnc12 [Example 32a]
hERG channel
  IC50: > 10000 nM
PDE10
  IC50: 7390 nM

## Cc1nc2cccnc2n2c(-c3cc(OCC(C)(C)O)ccc3Cl)nnc12 [Example 44]
[2]; brain, read-out: conc brain
  concentration at 0.5 h: 670 nM
[2]; [3]
  Kp at 0.5 h: 0.31
[2]; plasma, read-out: conc plasma
  concentration at 0.5 h: 2190 nM
[2]; read-out: conc CSF
  concentration at 0.5 h: 228 nM
[2]; read-out: c(CSF)/c(plasma)
  Kp at 0.5 h: 0.1
PDE2A
  IC50: 156 nM
PDE10
  IC50: 6040 nM
[1]
  Half-life - t½: 2.17 h

## Cc1nc2ccc(C3CC3)nc2n2c(-c3cc(OCC(C)(C)O)ccc3Cl)nnc12 [Example 45]
hERG channel
  IC50: > 10000 nM
[2]; brain, read-out: conc brain
  concentration at 2 h: 183 nM
[2]; plasma, read-out: conc plasma
  concentration at 2 h: 801 nM
[2]; read-out: conc CSF
  concentration at 2 h: 25 nM
[1]
  Half-life - t½: 2.17 h

## Cc1ccc(OCC(C)(C)O)cc1-c1nnc2c(C)nc3ccc(C4CC4)nc3n12 [Example 48]
hERG channel
  IC50: > 10000 nM
PDE2A
  IC50: 8 nM
[1]
  Half-life - t½: 2.17 h

## Cc1ccc(OCC2(O)CCC2)cc1-c1nnc2c(C)nc3cccnc3n12 [Example 50]
PDE2A
  IC50: 194 nM
PDE10
  IC50: 7120 nM
[1]
  Half-life - t½: 2.17 h

## Cc1nc2ccc(C(C)C)nc2n2c(-c3cc(OCC(C)(C)O)ccc3F)nnc12 [Example 52]
PDE2A
  IC50: 11 nM
PDE10
  IC50: 1200 nM
[1]
  Half-life - t½: 2.17 h

## Cc1nc2cc(C(C)C)cnc2n2c(-c3cc(OCC(C)(C)O)ccc3Cl)nnc12 [Example 54]
PDE2A
  IC50: 58 nM
PDE10
  IC50: 798 nM
[1]
  Half-life - t½: 2.17 h

## Cc1ccc2nc(C)c3nnc(-c4cc(C(O)C(C)C)ccc4Cl)n3c2n1 (stereo not drawn) [Example 59]
PDE2A
  IC50: 8 nM
PDE10
  IC50: 936 nM
[1]
  half-life at 1 μM: 0.817 h

## Cc1ccc2nc(C)c3nnc(-c4cc(C(C)O)ccc4Cl)n3c2n1 (stereo not drawn) [Example 63]
PDE2A
  IC50: 60 nM
PDE10
  IC50: 1710 nM
[1]
  Half-life - t½: 2.17 h

## Cc1nc2ccc(C3CC3)nc2n2c(-c3cc(CCC(C)(C)O)ccc3F)nnc12 [Example 66]
hERG channel
  IC50: > 10000 nM
PDE2A
  IC50: 3 nM
PDE10
  IC50: 674 nM

## Cc1ccc(CCC(C)(C)O)cc1-c1nnc2c(C)nc3cccnc3n12 [Example 67]
PDE2A
  IC50: 175 nM
PDE10
  IC50: 3900 nM
[1]
  Half-life - t½: 2.17 h

## Cc1ccc(CCC(C)(C)O)cc1-c1nnc2c(C)nc3ccc(C4CC4)nc3n12 [Example 68]
hERG channel
  IC50: 8300 nM
PDE2A
  IC50: 2 nM
PDE10
  IC50: 1010 nM

## Cc1nc2cccnc2n2c(-c3cc(C(C)(C)O)ccc3Cl)nnc12 [Example 70]
[2]; brain, read-out: conc brain
  concentration at 2 h: 695 nM
[2]; [3]
  Kp at 2 h: 0.29
[2]; plasma, read-out: conc plasma
  concentration at 2 h: 2380 nM
[2]; read-out: conc CSF
  concentration at 2 h: 276 nM
[2]; read-out: c(CSF)/c(plasma)
  Kp at 2 h: 0.12
PDE2A
  IC50: 163 nM
PDE10
  IC50: 8620 nM
[1]
  Half-life - t½: 2.17 h

## Cc1ccc(C(C)(C)O)cc1-c1nnc2c(C)nc3ccc(C4CC4)nc3n12 [Example 75]
hERG channel
  IC50: > 10000 nM
[2]; brain, read-out: conc brain
  concentration at 2 h: 383 nM
[2]; [3]
  Kp at 2 h: 0.34
[2]; plasma, read-out: conc plasma
  concentration at 2 h: 1130 nM
[2]; read-out: conc CSF
  concentration at 2 h: 31 nM
[2]; read-out: c(CSF)/c(plasma)
  Kp at 2 h: 0.03
[1]
  Half-life - t½: 2.17 h

## Cc1nc2ccc(C3CC3)nc2n2c(-c3cc(CC(C)(C)O)ccc3F)nnc12 [Example 80]
hERG channel
  IC50: > 10000 nM
PDE2A
  IC50: 10 nM
PDE10
  IC50: 5410 nM

## Cc1nc2cccnc2n2c(-c3cc(CC(C)(C)O)ccc3Cl)nnc12 [Example 82]
hERG channel
  IC50: > 10000 nM
PDE2A
  IC50: 199 nM
PDE10
  IC50: 5620 nM
[1]
  Half-life - t½: 2.17 h

## Cc1nc2ccc(C3CC3)nc2n2c(-c3cc(CC(C)(C)O)ccc3Cl)nnc12 [Example 83]
hERG channel
  IC50: > 10000 nM
PDE2A
  IC50: 4 nM
PDE10
  IC50: 8820 nM

## Cc1nc2ccc(C3CC3)nc2n2c(-c3cc(C4(O)CCC4)ccc3F)nnc12 [Example 84]
hERG channel
  IC50: 6300 nM
PDE2A
  IC50: 6 nM
PDE10
  IC50: 565 nM

## Cc1nc2ccc(C3CC3)nc2n2c(-c3cc(C(C)(C)O)ccc3Cl)nnc12 [Example 85]
hERG channel
  IC50: > 10000 nM
PDE2A
  IC50: 6 nM
PDE10
  IC50: 4320 nM
[1]
  Half-life - t½: 2.17 h

## Cc1nc2cccnc2n2c(-c3cc(C4(O)CCC4)ccc3Cl)nnc12 [Example 87]
hERG channel
  IC50: > 10000 nM
PDE2A
  IC50: 74 nM
PDE10
  IC50: 2590 nM
[1]
  Half-life - t½: 2.17 h

## Cc1nc2ccc(C3CC3)nc2n2c(-c3cc(C4(O)CCC4)ccc3Cl)nnc12 [Example 88]
hERG channel
  IC50: > 10000 nM
PDE2A
  IC50: 1 nM

## Cc1ccc2nc(C)c3nnc(-c4cc(C5(O)CCC5)ccc4Cl)n3c2n1 [Example 89]
PDE10
  IC50: 187 nM
[1]
  Half-life - t½: 2.17 h

## Cc1nc2cccnc2n2c(-c3cc(C4(O)CCOCC4)ccc3Cl)nnc12 [Example 93]
hERG channel
  IC50: > 10000 nM
PDE2A
  IC50: 86 nM
PDE10
  IC50: 6110 nM
[1]
  Half-life - t½: 2.17 h

## Cc1ccc(C(C)(C)CO)cc1-c1nnc2c(C)nc3ccc(C4CC4)nc3n12 [Example 100]
PDE2A
  IC50: 17 nM
PDE10
  IC50: 3860 nM
[1]
  half-life at 1 μM: 0.2 h

## Cc1ccc2nc(C)c3nnc(-c4cc(C5(O)CCC5)ccc4C)n3c2n1 [Example 102]
PDE2A
  IC50: 103 nM
PDE10
  IC50: 2260 nM
[1]
  Half-life - t½: 2.17 h
